Where two headings read alike, the source gives them in different places.
Assays:
Assay in all cases: Glasshouse assay for herbicidal activity (pre- and post-emergence), percentage phytotoxicity
Format in all cases: in vivo
[1] = test system: Lolium perenne (LOLPE); details: Lolium perenne
Outline: (§1)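 Damage was rated visually as percent phytotoxicity, 100% meaning total kill, 20 days after pre-emergence application (made one day post-sowing) or 15 days after post-emergence application (made about 12 days post-sowing). Plants were grown under 16 h light, 65% humidity, warm species 24/18° C, cool 20/16° C.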

[2] = test system: Alopecurus myosuroides (ALOMY); details: Alopecurus myosuroides
Outline: as §1

[3] = test system: Avena fatua (AVEFA); details: Avena fatua
Outline: as §1

[4] = test system: Echinochloa crus-galli (ECHCG); details: Echinochloa crus-galli
Outline: as §1

[5] = post-emergence, 360 h, POST-emergence, rate 250 g/ha, visual score 15 DAA (100%=total damage, 0%=no damage), read-out: Post-emergence herbicidal activity (percentage phytotoxicity) LOLPE POST
[6] = pre-emergence, 480 h, PRE-emergence, rate 250 g/ha, visual score 20 DAA (100%=total damage, 0%=no damage), read-out: Pre-emergence herbicidal activity (percentage phytotoxicity) LOLPE PRE
[7] = post-emergence, 360 h, POST-emergence, rate 250 g/ha, visual score 15 DAA (100%=total damage, 0%=no damage), read-out: Post-emergence herbicidal activity (percentage phytotoxicity) ALOMY POST
[8] = pre-emergence, 480 h, PRE-emergence, rate 250 g/ha, visual score 20 DAA (100%=total damage, 0%=no damage), read-out: Pre-emergence herbicidal activity (percentage phytotoxicity) ALOMY PRE
[9] = post-emergence, 360 h, POST-emergence, rate 250 g/ha, visual score 15 DAA (100%=total damage, 0%=no damage), read-out: Post-emergence herbicidal activity (percentage phytotoxicity) AVEFA POST
[10] = pre-emergence, 480 h, PRE-emergence, rate 250 g/ha, visual score 20 DAA (100%=total damage, 0%=no damage), read-out: Pre-emergence herbicidal activity (percentage phytotoxicity) AVEFA PRE
[11] = post-emergence, 360 h, POST-emergence, rate 250 g/ha, visual score 15 DAA (100%=total damage, 0%=no damage), read-out: Post-emergence herbicidal activity (percentage phytotoxicity) ECHCG POST
[12] = pre-emergence, 480 h, PRE-emergence, rate 250 g/ha, visual score 20 DAA (100%=total damage, 0%=no damage), read-out: Pre-emergence herbicidal activity (percentage phytotoxicity) ECHCG PRE
[13] = post-emergence, 360 h, 250 g/ha, post-emergence, 15 DAA, visual assessment (100%=total damage, 0%=no damage), read-out: Post-emergence herbicidal activity (percentage phytotoxicity) LOLPE POST
[14] = pre-emergence, 480 h, 250 g/ha, pre-emergence, 20 DAA, visual assessment (100%=total damage, 0%=no damage), read-out: Pre-emergence herbicidal activity (percentage phytotoxicity) LOLPE PRE
[15] = post-emergence, 360 h, 250 g/ha, post-emergence, 15 DAA, visual assessment (100%=total damage, 0%=no damage), read-out: Post-emergence herbicidal activity (percentage phytotoxicity) ALOMY POST
[16] = pre-emergence, 480 h, 250 g/ha, pre-emergence, 20 DAA, visual assessment (100%=total damage, 0%=no damage), read-out: Pre-emergence herbicidal activity (percentage phytotoxicity) ALOMY PRE
[17] = post-emergence, 360 h, 250 g/ha, post-emergence, 15 DAA, visual assessment (100%=total damage, 0%=no damage), read-out: Post-emergence herbicidal activity (percentage phytotoxicity) AVEFA POST
[18] = pre-emergence, 480 h, 250 g/ha, pre-emergence, 20 DAA, visual assessment (100%=total damage, 0%=no damage), read-out: Pre-emergence herbicidal activity (percentage phytotoxicity) AVEFA PRE
[19] = post-emergence, 360 h, 250 g/ha, post-emergence, 15 DAA, visual assessment (100%=total damage, 0%=no damage), read-out: Post-emergence herbicidal activity (percentage phytotoxicity) ECHCG POST
[20] = pre-emergence, 480 h, 250 g/ha, pre-emergence, 20 DAA, visual assessment (100%=total damage, 0%=no damage), read-out: Pre-emergence herbicidal activity (percentage phytotoxicity) ECHCG PRE

Row | SMILES | pest or weed control at 250 g/ha [1, 5] [%] | pest or weed control at 250 g/ha [1, 6] [%] | pest or weed control at 250 g/ha [2, 7] [%] | pest or weed control at 250 g/ha [2, 8] [%] | pest or weed control at 250 g/ha [3, 9] [%] | pest or weed control at 250 g/ha [3, 10] [%] | pest or weed control at 250 g/ha [4, 11] [%] | pest or weed control at 250 g/ha [4, 12] [%] | pest or weed control at 250 g/ha [1, 13] [%] | pest or weed control at 250 g/ha [1, 14] [%] | pest or weed control at 250 g/ha [2, 15] [%] | pest or weed control at 250 g/ha [2, 16] [%] | pest or weed control at 250 g/ha [3, 17] [%] | pest or weed control at 250 g/ha [3, 18] [%] | pest or weed control at 250 g/ha [4, 19] [%] | pest or weed control at 250 g/ha [4, 20] [%] | other results
1 | CCc1cc(-n2cc(Cl)cn2)cc(C)c1C1C(=O)CC(CC(=O)NCC2CC2)C1=O (stereo not shown) [Compound B237] | 100 | 90 | 100 | 100 | 100 | 90 | 100 | 90 | – | – | – | – | – | – | – | – | –
2 | Cc1cc(C)c(C2C(=O)CC(CC(=O)Nc3ccc(F)cc3F)C2=O)c(C)c1 (stereo not shown) [Compound B3] | – | – | – | – | – | – | – | – | 80 | 90 | 0 | 60 | 10 | 50 | 70 | 90 | –
3 | CCOC(=O)OC1=C(c2c(C)cc(-c3ncc(Cl)cn3)cc2C)C(=O)C(CC(=O)NC(C)(C)C)C1 (stereo not shown) [Compound P4] | – | – | – | – | – | – | – | – | – | – | – | – | – | – | – | – | pest or weed control at 250 g/ha ([1]; post-emergence, 360 h, post-emergence, 250 g/ha, 15 DAA, visual score (100%=total damage; 0%=no damage), read-out: LOLPE POST herbicidal activity (percentage phytotoxicity)): 100%; pest or weed control at 250 g/ha ([1]; pre-emergence, 480 h, pre-emergence, 250 g/ha, 20 DAA, visual score (100%=total damage; 0%=no damage), read-out: LOLPE PRE herbicidal activity (percentage phytotoxicity)): 100%; pest or weed control at 250 g/ha ([2]; post-emergence, 360 h, post-emergence, 250 g/ha, 15 DAA, visual score (100%=total damage; 0%=no damage), read-out: ALOMY POST herbicidal activity (percentage phytotoxicity)): 90%; pest or weed control at 250 g/ha ([2]; pre-emergence, 480 h, pre-emergence, 250 g/ha, 20 DAA, visual score (100%=total damage; 0%=no damage), read-out: ALOMY PRE herbicidal activity (percentage phytotoxicity)): 90%; pest or weed control at 250 g/ha ([3]; post-emergence, 360 h, post-emergence, 250 g/ha, 15 DAA, visual score (100%=total damage; 0%=no damage), read-out: AVEFA POST herbicidal activity (percentage phytotoxicity)): 100%; pest or weed control at 250 g/ha ([3]; pre-emergence, 480 h, pre-emergence, 250 g/ha, 20 DAA, visual score (100%=total damage; 0%=no damage), read-out: AVEFA PRE herbicidal activity (percentage phytotoxicity)): 90%; pest or weed control at 250 g/ha ([4]; post-emergence, 360 h, post-emergence, 250 g/ha, 15 DAA, visual score (100%=total damage; 0%=no damage), read-out: ECHCG POST herbicidal activity (percentage phytotoxicity)): 100%; pest or weed control at 250 g/ha ([4]; pre-emergence, 480 h, pre-emergence, 250 g/ha, 20 DAA, visual score (100%=total damage; 0%=no damage), read-out: ECHCG PRE herbicidal activity (percentage phytotoxicity)): 100%
4 | Cc1cc(-c2ncc(C#N)cn2)cc(C)c1C1C(=O)CC(CC(=O)NCc2cccc(Cl)c2)C1=O (stereo not shown) [Compound B284] | 100 | 90 | 100 | 100 | 100 | 70 | 100 | 100 | – | – | – | – | – | – | – | – | –
5 | C=CCC(C)(C)NC(=O)CC1CC(=O)C(c2c(C)cc(C)cc2C)C1=O (stereo not shown) [Compound B27] | – | – | – | – | – | – | – | – | 70 | 60 | 70 | 30 | 70 | 20 | 40 | 60 | –

Reference: US10206394B2, “Herbicidal compounds” (Syngenta Participations AG, priority 2014, dated 2019)
